Measurements from patent US10570179B2, “Substituted urea depsipeptide analogs as activators of the CLPP endopeptidase” (priority 2016, dated 2020).
≈ marks a conversion by molar mass, not a printed value. Numbered stars: 1 amine (or outer) side, 2 acyl side, 3 side chain; on linkers, the order of the positions; unused ones are H or OH. Bridge positions count the residues as written; N and C are the ends. Square brackets hold non-standard residues; d marks the D form. Peptide text beside a SMILES is read from it. * marks the point of attachment. ξ: configuration not given here. Piperazine(2S-CO,4-Me) = CN1CCN[C@H](C(=O)O)C1; Morpholine(3S-CO) = O=C(O)[C@@H]1COCCN1; Phe(3-Me) = Cc1cccc(C[C@H](N)C(=O)O)c1; NH(4-Cl-2-F-phenyl) = Fc1cc(Cl)ccc1N*; Pro(4R-Me) = C[C@H]1CN[C@H](C(=O)O)C1; Hyp = O=C(O)[C@@H]1C[C@@H](O)CN1; NH(4-Et-phenyl) = CCc1ccc(N*)cc1; ξNMeThr = CNC(C(=O)O)[C@@H](C)O; aThr = C[C@H](O)[C@H](N)C(=O)O; X3 = c1cc2c(cc1N*)OCCO2; CO = O=C([*:1])[*:2]

What was measured:
[1] = test system: S. aureus ATCC 29213; assay: Minimal inhibitory concentration, microbroth dilution; type: cell-based; settings: Staphylococcus aureus, ATCC29213; MIC; read-out: Minimal Inhibitory Concentrations (μM) S. aureus ATCC 29213
Summary of the method: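 Susceptibility testing used the CLSI dilution standard, with bacteria at ~10^5 cfu/mL exposed to a two-fold compound series beginning at 200 μM final. The endpoint is the lowest concentration showing no growth after overnight incubation (37 °C, aerobic).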

[2] = biological target: T1, S. aureus ClpP (Sa-ClpP) (Staphylococcus aureus, UniProt Q2G036); assay: Casein-BODIPY digestion assay (ClpP activation); type: biochemical
T1 construct: made in house; host or cells: E. coli BL21 (DE3)

[3] = biological target: T2, Sa-ClpP (Staphylococcus aureus, UniProt Q2G036); assay: ADEP displacement fluorescence polarization assay; type: binding, S. aureus; settings: displacement of FP probe ADEP 2591 from Sa-ClpP
T2 construct: made in house; host or cells: E. coli BL21 (DE3)
Summary of the method: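 Master mix of 15 μM Sa-ClpP and 50 nM TAMRA-labelled ADEP 2591 probe in Tris-HCl pH 8.0, 2% DMSO, was pre-equilibrated 1 h at RT, then compounds were added and incubated 120 min at RT. Polarization (ex 530, em 579 nm, mP) was normalised to 200 μM ADEP 2378 and DMSO controls and fitted by four-parameter regression, in triplicate.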

T1 sequence (Q2G036 whole entry): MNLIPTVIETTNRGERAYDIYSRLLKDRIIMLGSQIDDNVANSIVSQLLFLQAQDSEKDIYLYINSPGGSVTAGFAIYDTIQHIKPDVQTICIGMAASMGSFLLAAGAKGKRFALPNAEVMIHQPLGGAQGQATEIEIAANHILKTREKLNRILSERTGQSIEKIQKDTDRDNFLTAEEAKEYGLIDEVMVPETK
T2 sequence (Q2G036 whole entry): as above

SMILES | MIC [1] [µM] | EC50 [2] [µM] | IC50 [3] [µM]
Cc1cccc(C[C@H](NC(=O)Nc2ccc3c(c2)OCCO3)C(=O)N[C@@H]2C(=O)N3C[C@H](O)C[C@H]3C(=O)N3CCOC[C@H]3C(=O)N[C@@H](C)C(=O)N3C[C@H](C)C[C@H]3C(=O)O[C@H]2C)c1 [Compound 27, (S)-2-(3-(2,3-DIHYDROBENZO[B][1,4]DIOXIN-6-YL)UREIDO)-N-((6AS,8R,12S,13S,15AS,17R,21S,23AS)-8-HYDROXY-13,17,21-TRIMETHYL-6,11,15,20,23-PENTAOXOOCTADECAHYDRO-6H,11H,15H-[1,4]OXAZINO[3,4-I]DIPYRROLO[2,1-C:2′,1′-L][1]OXA[4,7,10,13]TETRAAZACYCLOHEXADECIN-12-YL)-3-(M-TOLYL)PROPANAMIDE] ({X3-CO}-[Phe(3-Me)][aThr][Hyp][Morpholine(3S-CO)]A[Pro(4R-Me)]; ester 2-C) | 10 (≈ 8.48 µg/mL) | 1.2 ± 0.1 | 5.13 ± 0.16
Cc1cccc(C[C@H](NC(=O)Nc2ccc(Cl)cc2F)C(=O)N[C@@H]2C(=O)N3CCC[C@H]3C(=O)N(C)C([C@@H](C)O)C(=O)N[C@@H](C)C(=O)N3C[C@H](C)C[C@H]3C(=O)O[C@H]2C)c1 (stereo partly drawn) [Compound 5] ({NH(4-Cl-2-F-phenyl)-CO}-[Phe(3-Me)][aThr]P[ξNMeThr]A[Pro(4R-Me)]; ester 2-C) | 0.078 (≈ 0.0646 µg/mL) | 0.32 ± 0.02 | 4.4 ± 0.4
Cc1cccc(C[C@H](NC(=O)Nc2ccc3c(c2)OCO3)C(=O)N[C@H]2COC(=O)[C@@H]3C[C@@H](C)CN3C(=O)[C@H](C)NC(=O)[C@@H]3CCCCN3C(=O)[C@@H]3CCCN3C2=O)c1 [Compound 23, (S)-2-(3-(BENZO[D][1,3]DIOXOL-5-YL)UREIDO)-N-((2R,6S,8AS,14AS,20S,23AS)-2,6-DIMETHYL-5,8,14,19,23-PENTAOXOOCTADECAHYDRO-1H,5H,14H,19H-PYRIDO[2,1-I]DIPYRROLO[2,1-C:2′,1′-L][1]OXA[4,7,10,13]TETRAAZACYCLOHEXADECIN-20-YL)-3-(M-TOLYL)PROPANAMIDE] | 1.25 (≈ 1 µg/mL) | 0.35 ± 0.09 | 1.96 ± 0.12
CCc1ccc(NC(=O)N[C@@H](Cc2cccc(C)c2)C(=O)N[C@H]2COC(=O)[C@@H]3C[C@@H](C)CN3C(=O)[C@H](C)NC(=O)[C@@H]3CN(C)CCN3C(=O)[C@@H]3CCCN3C2=O)cc1 [Compound 16, (S)-2-(3-(4-ETHYLPHENYL)UREIDO)-3-(M-TOLYL)-N-((6AS,12S,15AS,17R,21S,23AS)-2,17,21-TRIMETHYL-6,11,15,20,23-PENTAOXOOCTADECAHYDRO-2H,6H,11H,15H-PYRAZINO[2,1-I]DIPYRROLO[2,1-C:2′,1′-L][1]OXA[4,7,10,13]TETRAAZACYCLOHEXADECIN-12-YL)PROPANAMIDE] ({NH(4-Et-phenyl)-CO}-[Phe(3-Me)]SP[Piperazine(2S-CO,4-Me)]A[Pro(4R-Me)]; ester 2-C) | 1.25 (≈ 1 µg/mL) | 0.63 ± 0.1 | 5.46 ± 0.2
Cc1cccc(C[C@H](NC(=O)Nc2ccc(Cl)cc2F)C(=O)N[C@@H]2C(=O)N3CCC[C@H]3C(=O)N3CCN(C)C[C@H]3C(=O)N[C@@H](C)C(=O)N3C[C@H](C)C[C@H]3C(=O)O[C@H]2C)c1 [Compound 11, (S)-2-(3-(4-CHLORO-2-FLUOROPHENYL)UREIDO)-N-((6AS,12S,13S,15AS,17R,21S,23AS)-2,13,17,21-TETRAMETHYL-6,11,15,20,23-PENTAOXOOCTADECAHYDRO-2H,6H,11H,15H-PYRAZINO[2,1-I]DIPYRROLO[2,1-C:2′,1′-L][1]OXA[4,7,10,13]TETRAAZACYCLOHEXADECIN-12-YL)-3-(M-TOLYL)PROPANAMIDE] ({NH(4-Cl-2-F-phenyl)-CO}-[Phe(3-Me)][aThr]P[Piperazine(2S-CO,4-Me)]A[Pro(4R-Me)]; ester 2-C) | 0.078 (≈ 0.0655 µg/mL) | 0.29 ± 0.01 | 3.45 ± 0.2
